For one series, the target named is T1, MAO-A (Homo sapiens, UniProt P21397).
T1 construct: made in house; host or cells: yeast
T1 sequence (P21397 1-527): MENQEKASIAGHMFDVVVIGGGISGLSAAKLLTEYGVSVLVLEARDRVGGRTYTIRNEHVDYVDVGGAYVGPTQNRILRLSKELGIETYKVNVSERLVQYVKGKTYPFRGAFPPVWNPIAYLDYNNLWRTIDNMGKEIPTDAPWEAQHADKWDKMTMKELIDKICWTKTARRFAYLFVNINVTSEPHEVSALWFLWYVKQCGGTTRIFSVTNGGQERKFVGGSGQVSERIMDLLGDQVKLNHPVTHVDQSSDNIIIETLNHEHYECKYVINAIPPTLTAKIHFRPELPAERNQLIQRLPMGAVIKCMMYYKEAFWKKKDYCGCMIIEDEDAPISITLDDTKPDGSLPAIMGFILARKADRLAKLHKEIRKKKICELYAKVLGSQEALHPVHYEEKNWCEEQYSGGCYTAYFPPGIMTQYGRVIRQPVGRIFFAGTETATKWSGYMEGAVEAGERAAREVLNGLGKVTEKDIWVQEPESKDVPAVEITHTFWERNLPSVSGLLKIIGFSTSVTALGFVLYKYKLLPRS
The experiment in a line: MAO-A inhibition, standard in-vitro assay, human liver enzyme expressed in yeast. Particulars: read-out: Ki value against MAO-A. Type of series: biochemical. The procedure:
The activity of the compounds of the invention against MAO-A was tested using a standard in-vitro assay based on human liver enzyme expressed in yeast as described in Biochem. Biophys. Res. Commun. 1991, 181, 1084-1088.

Series [1] deals with Staphylococcus aureus MRQR (methicillin resistant and quinolone resistant). The experiment in a line: MIC, agar dilution, Staphylococcus aureus MRQR. As to conditions: inoculum 10^4 CFU/spot, 37° C., 24 hours. The format is cell-based. How it is done: (§1) The following results were obtained on a standard in-vitro test system. The activity is described in terms of the minimum inhibitory concentration (MIC) determined by the agar-dilution technique with an inoculum size of 10^4 CFU/spot. Typically, compounds are active in the range 0.01 to 256 μg/ml.
(§2) Staphylococci were tested on agar, using an inoculum of 10^4 CFU/spot and an incubation temperature of 37° C. for 24 hours—standard test conditions for the expression of methicillin resistance.

For series [2], the system named is Staphylococcus aureus MSQS (methicillin sensitive and quinolone sensitive). The experiment in a line: MIC, agar dilution, Staphylococcus aureus MSQS. Type of series: cell-based. Particulars: inoculum 10^4 CFU/spot, 37° C., 24 hours. How it is done: as §1, §2
For orientation: In agar dilution the substance is mixed into plates at graded concentrations.

A further series concerns Streptococcus pneumoniae. Nature of the series: MIC, agar dilution, Streptococcus pneumoniae. The format is cell-based. As to conditions: agar with 5% defibrinated horse blood, 10^4 CFU/spot, 37° C., 5% carbon dioxide, 48 hours. The procedure:
as §1
(§3) Streptococci and enterococci were tested on agar supplemented with 5% defibrinated horse blood, an inoculum of 10^4 CFU/spot and an incubation temperature of 37° C. in an atmosphere of 5% carbon dioxide for 48 hours—blood is required for the growth of some of the test organisms. Fastidious Gram negative organisms were tested in Mueller-Hinton broth, supplemented with hemin and NAD, grown aerobically for 24 hours at 37° C., and with an innoculum of 5×10^4 CFU/well.

Series [3] has as its system Linezolid Resistant Streptococcus pneumoniae. Nature of the series: MIC, agar dilution, Linezolid Resistant Streptococcus pneumoniae. The format is cell-based. As to conditions: agar with 5% defibrinated horse blood, 10^4 CFU/spot, 37° C., 5% carbon dioxide, 48 hours. How it is done: as §1, §3
Another series has as its system Moraxella catarrhalis. The experiment in a line: MIC, Moraxella catarrhalis (fastidious Gram negative, broth). Type of series: cell-based. Particulars: Mueller-Hinton broth with hemin and NAD, 24 hours at 37° C., 5×10^4 CFU/well. How it is done: as §1, §3
The next series has as its system Haemophilus influenzae. Nature of the series: MIC, Haemophilus influenzae (fastidious Gram negative, broth). Type of series: cell-based. Particulars: Mueller-Hinton broth with hemin and NAD, 24 hours at 37° C., 5×10^4 CFU/well. The procedure: as §1, §3

Values after ≈ are worked out from the molar mass of the structure shown. Structures can show the parent of a compound that is named as a salt.

For `NC[C@@H]1CC(c2ccc(-c3ccc(N4C[C@H](Cn5ccnn5)OC4=O)cc3F)cn2)=NO1` [Reference Example 16, (5R)-3-(4-{6-[(5S)-5-(Aminomethyl)-4,5-dihydroisoxazol-3-yl]pyridin-3-yl}-3-fluorophenyl)-5-(1H-1,2,3-triazol-1-ylmethyl)-1,3-oxazolidin-2-one], the melting point – broadly, the temperature, or range, at which the solid turns liquid – fell in the range of 119 to 122 °C. For the same compound, the Ki – broadly, a dissociation constant, usually derived from enzyme kinetics or from competition with a known ligand – at MAO-A stood at 350 nM.
Take `O=C1O[C@@H](Cn2ccnn2)CN1c1ccc(-c2ccc(C3=NO[C@H](CN4CCOCC4)C3)nc2)c(F)c1` [Example 3, (5R)-3-(3-Fluoro-4-{6-[(5S)-5-(morpholin-4-ylmethyl)-4,5-dihydroisoxazol-3-yl]pyridin-3-yl}phenyl)-5-(1H-1,2,3-triazol-1-ylmethyl)-1,3-oxazolidin-2-one]: the melting point came to 230 °C. This compound returned an MIC in series [1] of 0.5 µg/mL (≈ 0.985 µM). The MIC in series [2] was determined as 0.5 µg/mL (≈ 0.985 µM). The Ki at MAO-A is over 22000 nM. The MIC in the series with Streptococcus pneumoniae stood at 0.13 µg/mL (≈ 0.256 µM). This compound also gave an MIC in series [3] of 1 µg/mL (≈ 1.97 µM). Also, the MIC with Moraxella catarrhalis stood at 1 µg/mL (≈ 1.97 µM). In the series with Haemophilus influenzae, this compound yielded an MIC of 8 µg/mL (≈ 15.8 µM).
Take `O=C(NC[C@@H]1CC(c2ccc(-c3ccc(N4C[C@H](Cn5ccnn5)OC4=O)cc3F)cn2)=NO1)[C@@H]1CCCN1` (as salt: hydrochloride) [Example 20, N-{[(5S)-3-(5-{2-Fluoro-4-[(5R)-2-oxo-5-(1H-1,2,3-triazol-1-ylmethyl)-1,3-oxazolidin-3-yl]phenyl}pyridin-2-yl)-4,5-dihydroisoxazol-5-yl]methyl}-L-prolinamide hydrochloride]: the melting point was 246 to 249 °C.
Compound `O=C1O[C@@H](Cn2ccnn2)CN1c1ccc(-c2ccc(C3=NO[C@H](CN4CCSCC4)C3)nc2)c(F)c1` [Example 7, (5R)-3-(3-Fluoro-4-{6-[(5S)-5-(thiomorpholin-4-ylmethyl)-4,5-dihydroisoxazol-3-yl]pyridin-3-yl}phenyl)-5-(1H-1,2,3-triazol-1-ylmethyl)-1,3-oxazolidin-2-one] registered a melting point of 222 to 225 °C.
Same read-out and setting: next, `CN1CCN(C[C@@H]2CC(c3ccc(-c4ccc(N5C[C@H](Cn6ccnn6)OC5=O)cc4F)cn3)=NO2)CC1` [Example 4, (5R)-3-[3-Fluoro-4-(6-{(5S)-5-[(4-methylpiperazin-1-yl)methyl]-4,5-dihydroisoxazol-3-yl}pyridin-3-yl)phenyl]-5-(1H-1,2,3-triazol-1-ylmethyl)-1,3-oxazolidin-2-one]: 218 °C; `Cl.O=C1O[C@@H](Cn2ccnn2)CN1c1ccc(-c2ccc(C3=NO[C@H](CN4CCOCC4)C3)nc2)c(F)c1`: 242 °C; `CN(CC(=O)O)CC(=O)NC[C@@H]1CC(c2ccc(-c3ccc(N4C[C@H](Cn5ccnn5)OC4=O)cc3F)cn2)=NO1` [Example 27, N-[2-({[(5S)-3-(5-{2-Fluoro-4-[(5R)-2-oxo-5-(1H-1,2,3-triazol-1-ylmethyl)-1,3-oxazolidin-3-yl]phenyl}pyridin-2-yl)-4,5-dihydroisoxazol-5-yl]methyl}amino)-2-oxoethyl]-N-methylglycine]: 185 to 188 °C.
As to `N[C@@H](CCC(=O)O)C(=O)NC[C@@H]1CC(c2ccc(-c3ccc(N4C[C@H](Cn5ccnn5)OC4=O)cc3F)cn2)=NO1` (racemic) [Example 29, N^1-{[(5S)-3-(5-{2-Fluoro-4-[(SR)-2-oxo-5-(1H-1,2,3-triazol-1-ylmethyl)-1,3-oxazolidin-3-yl]phenyl}pyridin-2-yl)-4,5-dihydroisoxazol-5-yl]methyl}-L-α-glutamine], the melting point is 215 to 217 °C.

(Values after US20080064689A1, “3-[4-(6-Pyridin-3-Yl)-3-Phenyl] -5-(1H-1,2,3-Triazol-1-Ylmethyl)-1,3-Oxazolidin-2-Ones as Antibacterial Agents” (AstraZeneca AB, priority 2004, published 2008).)
